Assay [1] deals with U87MG cells. In words: Mitotic phenotype classification. Format: cell-based. Particulars: 0.03 μM, 24 hours. The procedure:
Distinct mitotic phenotypes are induced following inhibition of PLK1 and PLK4 in cells. […] Centriole assembly is controlled by PLK4, with inhibitors inducing a multipolar spindle phenotype due to centrosome defects which results in abnormal cyokinesis (Wong et al., 2015. Science 348(6239); 1155-1160). Cells were plated at 10 000/well in 96-well plates and incubated overnight. The following day atropisomer A-2 stocks in DMSO were diluted in medium then added to cells with a maximum final DMSO concentration on cells of 0.2%. Cells were incubated with the compound for 24 hours then fixed in 3.7% formaldeyde. Cells were permeabilised with 0.1% Triton X-100 then incubated with anti-phospho-histone H3 (Ser10) antibody (Abcam ab5176). The cells were washed with PBS then incubated with AlexaFluor 488 labelled goat anti-rabbit IgG (Invitrogen A11034) in the presence of 4 ug/ml Hoechst 33342 (Invitrogen H3570). Cells were washed in PBS then imaged on an Arrayscan VTi HCS instrument (Thermo Fisher) using the Target Activation V4 Bioapplication. A user-defined threshold was applied to identify mitotic cells based on the intensity of phospho-histone H3 staining. In a separate study, following the above protocol but using single compound concentrations of 0.03 μM for each of atropisomer A-1 and atropisomer A-2, the frequency of observed mitotic phenotypes in U87MG cells was manually assessed and classified into the following phenotypes: non-congressed chromosomes, multipolar spindles/abnormal cytokinesis, monopolar spindles, normal prometaphase, normal metaphase for each of A-1 and A-2.

Assay [2] has as its target T1, PLK4 (catalytic domain) (Homo sapiens, UniProt O00444).
T1 construct: purchased DiscoverX; host or cells: E. coli (BL21-derived, T7 phage display) or HEK-293
In words: DiscoverX KinomeScreen competition binding assay. The procedure:
(§1) This has been investigated by testing atropisomer A-2 for off-target activity against a panel of ninety-seven kinases distributed across the kinome at a concentration of 3 μM using the DiscoverX KinomeScreen assay. The DiscoverX KinomeScreen assay is a site-directed competition binding assay which measures the binding affinity of a compound to a kinase, by use of a solid supported control compound which can bind or capture the kinases in solution. In the absence of a kinase-inhibitor test compound, all of the kinase will bind to the solid support. If a kinase-inhibitor test compound is added to the assay mix, the amount of kinase binding to the solid support will be reduced, the extent of reduction being dependent on the potency of the test compound as a kinase inhibitor. […] For most assays, kinase-tagged T7 phage strains were grown in parallel in 24-well blocks in an E. coli host derived from the BL21 strain. E. coli were grown to log-phase and infected with T7 phage from a frozen stock (multiplicity of infection=0.4) and incubated with shaking at 32° C. until lysis (90-150 minutes). The lysates were centrifuged (6,000×g) and filtered (0.2 μm) to remove cell debris. The remaining kinases were produced in HEK-293 cells and subsequently tagged with DNA for qPCR detection. Streptavidin-coated magnetic beads were treated with biotinylated small molecule ligands for 30 minutes at room temperature to generate affinity resins for kinase assays. The liganded beads were blocked with excess biotin and washed with blocking buffer (SeaBlock (Pierce), 1% BSA, 0.05% Tween 20, 1 mM DTT) to remove unbound ligand and to reduce non-specific phage binding. […] Test compounds were prepared as 40× stocks in 100% DMSO and directly diluted into the assay. All reactions were performed in polypropylene 384-well plates in a final volume of 0.02 ml. […] The beads were then re-suspended in elution buffer (1×PBS, 0.05% Tween 20, 0.5 μM non-biotinylated affinity ligand) and incubated at room temperature with shaking for 30 minutes. The kinase concentration in the eluates was measured by qPCR. Compounds that bind the kinase active site and directly (sterically) or indirectly (allosterically) prevent kinase binding to the immobilized ligand, will reduce the amount of kinase captured on the solid support. […] The strength of binding of the test molecule to the kinase can be expressed as the percent control (% Ctrl) The compound(s) were screened at 3000 nM concentration, and results for primary screen binding interactions are reported as ‘% Ctrl’, where lower numbers indicate stronger hits in the matrix on the following page(s). [formula] • negative control=DMSO (100% Ctrl) • positive control=control compound (0% Ctrl)

The target in assay [3] is T2, PLK1 (catalytic domain) (Homo sapiens, UniProt P53350).
T2 construct: purchased DiscoverX; host or cells: E. coli (BL21-derived, T7 phage display) or HEK-293
T2 sequence (P53350 53-305 limits assumed): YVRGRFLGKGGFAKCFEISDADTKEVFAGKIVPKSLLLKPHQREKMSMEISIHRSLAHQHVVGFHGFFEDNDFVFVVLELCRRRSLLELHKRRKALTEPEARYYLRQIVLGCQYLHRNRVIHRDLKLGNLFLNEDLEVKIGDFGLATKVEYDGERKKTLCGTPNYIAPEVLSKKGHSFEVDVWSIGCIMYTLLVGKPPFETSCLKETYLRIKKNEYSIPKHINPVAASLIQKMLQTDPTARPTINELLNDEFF
As to the kind of experiment: DiscoverX KinomeScreen competition binding assay. As for the experimental part:
as §1

For assay [4], the system named is HeLa. In words: Mitotic index (phospho-histone H3) assay. Format: cell-based. The conditions noted are these: Homo sapiens, % mitotic cells (pH3-positive), 24 hours. From the text:
(§2) Inhibiting the ability of PLK1 and PLK4 to bind to their partners through their PBDs is known to cause cells to arrest in mitosis. Experimentally, this can be measured by assessing the number of cells which are in mitosis at a certain time after treatment with a test compound by immunofluorescent detection of phosphorylated Histone H3 (pH3), a mark which is only present in mitotic cells. PLK1/4-PBD inhibitors are expected to cause a dose-dependent increase in pH3-positive cells, which is reported as Mitotic Index (MI)—the percentage of cells which, at a given time, are positive for this mitotic mark. Cells were plated at 10 000/well in 96-well plates and incubated overnight. The following day atropisomer A-2 stocks in DMSO were diluted in medium then added to cells with a maximum final DMSO concentration on cells of 0.2%. Cells were incubated with the compound for 24 hours then fixed in 3.7% formaldeyde. Cells were permeabilised with 0.1% Triton X-100 then incubated with anti-phospho-histone H3 (Ser10) antibody (Abcam ab5176). The cells were washed with PBS then incubated with AlexaFluor 488 labelled goat anti-rabbit IgG (Invitrogen A11034) in the presence of 4 ug/ml Hoechst 33342 (Invitrogen H3570). Cells were washed in PBS then imaged on an Arrayscan VTi HCS instrument (Thermo Fisher) using the Target Activation V4 Bioapplication. […]

Assay [5] relates to U87MG. In words: Mitotic index (phospho-histone H3) assay. Format: cell-based. The conditions noted are these: Homo sapiens, U-87 MG; % mitotic cells (pH3-positive), 24 hours.
Text: as §2

Assay [6] concerns U87-Luc cells intracerebrally implanted. In words: U87-Luc orthotopic xenograft model. The conditions noted are these: oral 100 mg/kg on days 1, 4, 7, 10 and 13; Day 15. It is filed as in vivo, male athymic nude mice. The procedure:
U87-Luc cells were intracerebrally implanted into the brains of male athymic nude mice and tumour growth was monitored by bioluminescent signal. In the treatment group animals were given an oral dose of 100 mg/kg of atropisomer A-2 on days 1, 4, 7, 10 and 13. The control group animals were given vehicle only.

Setting [7] is: 3 μM (3000 nM), lower = stronger binding, read-out: % Control.

T1 sequence (O00444 12-265 limits assumed): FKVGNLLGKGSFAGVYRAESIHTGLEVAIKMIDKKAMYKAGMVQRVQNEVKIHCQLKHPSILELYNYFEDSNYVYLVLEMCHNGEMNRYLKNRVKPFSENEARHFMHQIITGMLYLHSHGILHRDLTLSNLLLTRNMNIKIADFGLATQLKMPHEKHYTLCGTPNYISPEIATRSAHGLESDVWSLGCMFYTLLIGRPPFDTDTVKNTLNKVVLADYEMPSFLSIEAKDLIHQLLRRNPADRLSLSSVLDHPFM

For the compound `CN(C)CCNC(=O)c1ccc(-c2ccc(-c3ccc(Cl)cc3)n2-c2ccccc2C(F)(F)F)cc1` (single isomer, unassigned; atropisomer a) [Atropisomer A-1], in assay [1], the “cells with abnormal cytokinesis” value is reported as 24%, the “cells with non-congressed chromosomes” value is listed as “No evidence” and the “cells with normal mitotic phenotype” value is on record as 76%.

For orientation: EC50 means the concentration needed to bring the measured effect to its halfway point. Turning to `CN(C)CCNC(=O)c1ccc(-c2ccc(-c3ccc(Cl)cc3)n2-c2ccccc2C(F)(F)F)cc1` (single isomer, unassigned) [Atropisomer A-2], the remaining binding at 3 µM in assay [2] (setting [7]) amounted to 100%; in assay [3] (setting [7]), 97%. In addition, the “% Ctrl @ 3 μM” value is recorded as 100 % Ctrl in assay [2] (PLK4, screened at 3000 nM) and 97 % Ctrl in assay [3] (PLK1, screened at 3000 nM). The EC50 in assay [4] is 30 nM; in assay [5] it was 90 nM. The “bioluminescent tumour signal, treated versus control” value in assay [6] was “a decrease in tumour signal”.

For the origin of these results see patent US12637424B2, “Pharmaceutical salt of an arylpyrrole derivative” (SENTINEL ONCOLOGY LIMITED, priority 2020, dated 2026).
